Results reported in PubChem BioAssay AID1259411 (Chemical Carcinogenesis Research Information System (CCRIS), 2018).
The source made the active and inactive calls. The rule behind the calls is not given here.

Tested on: rodent carcinogenicity bioassays, tumor incidence
Assay: CCRIS carcinogenicity studies
Settings: Dose: 0, Dose: 0
In short: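 NCI-built, expert-reviewed records of carcinogenicity and related test outcomes (mutagenicity, tumor promotion/inhibition) compiled from published and report sources, historical span 1985-2011, not updated.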

c1ccccc1
carcinogen call (Species: Mouse, Strain/Sex: C57BL/6 (heterozygous Trp53-deficient)/Male, Route: Inhalation, 100, 300 ppm 6 hr/d, 5 d/wk for 26 wks, then no exposure for lifetime, 100, 300 ppm 6 hr/d, 5 d/wk for 26 wks, then no exposure for lifetime, Tumor Site: Type of Lesion: Blood: hematopoietic neoplasms (325, 83,100%). Lymphoid tissue: thymic lymphoma (4, 50, 25%)): active; positive (highest dose) | carcinogen call (Species: Mouse, Strain/Sex: C57BL/6 (homozygous Trp53-deficient)/Male, Route: Inhalation, 33, 100, 300 ppm 6 hr/d, 5 d/wk for 26 wks, then no exposure for lifetime, 33, 100, 300 ppm 6 hr/d, 5 d/wk for 26 wks, then no exposure for lifetime): inactive; negative | carcinogen call (Species: Mouse, Strain/Sex: C57BL/6 (wild type)/Male, Route: Inhalation, 33, 100, 300 ppm 6 hr/d, 5 d/wk for 26 wks, then no exposure for lifetime, 33, 100, 300 ppm 6 hr/d, 5 d/wk for 26 wks, then no exposure for lifetime, Tumor Site: Type of Lesion: Blood: Hematopoietic neoplasms (10, 21,16, 56%). Lymphoid tissue: Thymic lymphoma (0, 0,11, 28%)): active; positive (highest dose) | carcinogen call (Species: Mouse, Strain/Sex: C57BL/6 (wild type)/Male, Route: Inhalation, 100, 300 ppm 6 hr/d, 5 d/wk for 26 wks, then no exposure for lifetime, 100, 300 ppm 6 hr/d, 5 d/wk for 26 wks, then no exposure for lifetime, Tumor Site: Type of Lesion: Blood: hematopoietic neoplasms (8, 25,30%). Lymphoid tissue: thymic lymphoma (0,17, 0%)): inactive; negative | carcinogen call (Species: RAT, Strain/Sex: F344/FEMALE, Route: GAVAGE, 25, 50, 100 MG/KG IN CORN OIL 5 D/WK FOR 103 WK, 25, 50, 100 MG/KG IN CORN OIL 5 D/WK FOR 103 WK, Tumor Site: Type of Lesion: ORAL CAVITY: SQUAMOUS CELL PAPILLOMA OR CARCINOMA, EAR (ZYMBAL GLAND): CARCINOMA, ADENOMA OR CARCINOMA): active; positive | carcinogen call (Species: RAT, Strain/Sex: F344/MALE, Route: GAVAGE, 50, 100, 200 MG/KG IN CORN OIL 5 D/WK FOR 103 WK, 50, 100, 200 MG/KG IN CORN OIL 5 D/WK FOR 103 WK, Tumor Site: Type of Lesion: INTEGUMENTARY SYSTEM (SKIN): SQUAMOUS CELL PAPILLOMA, SQUAMOUS CELL CARCINOMA, ORAL CAVITY: SQUAMOUS CELL PAPILLOMA, SQU): active; positive | carcinogen call (Species: RAT, Strain/Sex: SPRAGUE-DAWLEY/FEMALE, Route: GAVAGE, 50, 250 MG/KG BW IN OLIVE OIL 1/D 4-5 D/WK FOR 52 WK (STUDY DURATION: LIFETIME), 50, 250 MG/KG BW IN OLIVE OIL 1/D 4-5 D/WK FOR 52 WK (STUDY DURATION: LIFETIME), Tumor Site: Type of Lesion: [BRAIN WAS ONLY SITE EVALUATED]): inactive; negative | carcinogen call (Species: RAT, Strain/Sex: SPRAGUE-DAWLEY/FEMALE, Route: GAVAGE, 50, 250 MG/KG BW, 1/D, 4-5 D/WK FOR 52 WK, 50, 250 MG/KG BW, 1/D, 4-5 D/WK FOR 52 WK, Tumor Site: Type of Lesion: ZYMBAL GLAND: CARCINOMA, MAMMARY GLAND: CARCINOMA): active; positive | carcinogen call (Species: RAT, Strain/Sex: SPRAGUE-DAWLEY/MALE,FEMALE, Route: GAVAGE, 500 MG/KG BW, 1/WK, Tumor Site: Type of Lesion: ORAL CAVITY: SQUAMOUS CELL CARCINOMA, ZYMBAL GLAND: CARCINOMA): active; positive | carcinogen call (Species: RAT, Strain/Sex: SPRAGUE-DAWLEY/MALE, Route: GAVAGE, 50, 250 MG/KG BW IN OLIVE OIL 1/D 4-5 D/WK FOR 52 WK (STUDY DURATION: LIFETIME), 50, 250 MG/KG BW IN OLIVE OIL 1/D 4-5 D/WK FOR 52 WK (STUDY DURATION: LIFETIME), Tumor Site: Type of Lesion: [BRAIN WAS ONLY SITE EVALUATED]): inactive; negative | carcinogen call (Species: RAT, Strain/Sex: SPRAGUE-DAWLEY/MALE, Route: GAVAGE, 50, 250 MG/KG BW, 1/D, 4-5 D/WK FOR 52 WK, 50, 250 MG/KG BW, 1/D, 4-5 D/WK FOR 52 WK, Tumor Site: Type of Lesion: HEMATOPOIETIC SYSTEM (LEUKEMIA)): active; positive | carcinogen call (Species: RAT, Strain/Sex: STRAIN-CD/FEMALE, Route: INHALATION, 200 PPM 4 HR/D 5 D/WK FOR 7 WK THEN 7 HR/D FOR 12 WK THEN 300 PPM 7 HR/D 5 D/WK FOR 85 WK (STUDY DURATION: LIFESPAN), Tumor Site: Type of Lesion: MAMMARY GLAND: ADENOCARCINOMA, ORAL CAVITY: CARCINOMA, ZYMBAL GLAND: CARCINOMA, Tumor Site: Type of Lesion: MAMMARY GLAND: ADENOCARCINOMA, ORAL CAVITY: CARCINOMA, ZYMBAL GLAND: CARCINOMA): active; positive | carcinogen call (Species: RAT, Strain/Sex: STRAIN-CD/FEMALE, Route: INHALATION, 200 PPM 4 HR/D FOR 7 WK THEN 7 HR/D FOR 12 WK THEN 300 PPM 7 HR/D 5 D/WK FOR 85 WK TO RATS ALSO EXPOSED IN UTERO (STU, Tumor Site: Type of Lesion: ZYMBAL GLAND: CARCINOMA, ORAL CAVITY: CARCINOMA, NASAL CAVITY: CARCINOMA, MAMMARY GLAND: ADENOCARCINOMA, LIVER: HEPATOMA, Tumor Site: Type of Lesion: ZYMBAL GLAND: CARCINOMA, ORAL CAVITY: CARCINOMA, NASAL CAVITY: CARCINOMA, MAMMARY GLAND: ADENOCARCINOMA, LIVER: HEPATOMA): active; positive | carcinogen call (Species: RAT, Strain/Sex: STRAIN-CD/FEMALE, Route: INTRAGASTRIC, 50, 250 MG/KG IN OLIVE OIL 1/D 4-5 D/WK FOR 52 WK (STUDY DURATION: LIFESPAN), 50, 250 MG/KG IN OLIVE OIL 1/D 4-5 D/WK FOR 52 WK (STUDY DURATION: LIFESPAN), Tumor Site: Type of Lesion: ZYMBAL GLAND: CARCINOMA): active; positive | carcinogen call (Species: RAT, Strain/Sex: STRAIN-CD/FEMALE, Route: INTRAGASTRIC, 500 MG/KG IN OLIVE OIL 1/D 4-5 D/WK FOR 104 WK (STUDY DURATION: 104 WK)): inactive; negative | carcinogen call (Species: RAT, Strain/Sex: STRAIN-CD/FEMALE, Route: INTRAGASTRIC, 500 MG/KG IN OLIVE OIL 1/D 4-5 D/WK FOR 104 WK (STUDY DURATION: LIFESPAN), Tumor Site: Type of Lesion: ZYMBAL GLAND: CARCINOMA, LIVER: ANGIOSARCOMA, ORAL CAVITY: CARCINOMA, HEMOLYMPHORETICULAR: TUMOR, Tumor Site: Type of Lesion: ZYMBAL GLAND: CARCINOMA, LIVER: ANGIOSARCOMA, ORAL CAVITY: CARCINOMA, HEMOLYMPHORETICULAR: TUMOR): active; positive | carcinogen call (Species: RAT, Strain/Sex: STRAIN-CD/MALE, Route: INHALATION, 200 PPM 4 HR/D 5 D/WK FOR 7 WK THEN 7 HR/D FOR 12 WK THEN 300 PPM 7 HR/D 5 D/WK FOR 85 WK TO RATS ALSO EXPOSED IN UTE, Tumor Site: Type of Lesion: ZYMBAL GLAND: CARCINOMA): active; positive | carcinogen call (Species: RAT, Strain/Sex: STRAIN-CD/MALE, Route: INTRAGASTRIC, 50, 250 MG/KG IN OLIVE OIL 1/D 4-5 D/WK FOR 52 WK (STUDY DURATION: LIFESPAN), 50, 250 MG/KG IN OLIVE OIL 1/D 4-5 D/WK FOR 52 WK (STUDY DURATION: LIFESPAN), Tumor Site: Type of Lesion: HEMOLYMPHORETICULAR SYSTEM: TUMOR): active; positive | carcinogen call (Species: RAT, Strain/Sex: STRAIN-CD/MALE, Route: INTRAGASTRIC, 500 MG/KG IN OLIVE OIL 1/D 4-5 D/WK FOR 104 WK (STUDY DURATION: 104 WK)): inactive; negative | carcinogen call (Species: RAT, Strain/Sex: STRAIN-CD/MALE, Route: INTRAGASTRIC, 500 MG/KG IN OLIVE OIL 1/D 4-5 D/WK FOR 104 WK (STUDY DURATION: LIFESPAN), Tumor Site: Type of Lesion: ZYMBAL GLAND: CARCINOMA, ORAL CAVITY: CARCINOMA, NASAL CAVITY: CARCINOMA, SKIN: CARCINOMA, Tumor Site: Type of Lesion: ZYMBAL GLAND: CARCINOMA, ORAL CAVITY: CARCINOMA, NASAL CAVITY: CARCINOMA, SKIN: CARCINOMA): active; positive | carcinogen call (Species: RAT, Strain/Sex: WISTAR/FEMALE, Route: GAVAGE, 500 MG/KG IN OLIVE OIL 1/D FOR 4 TO 5 D/WK FOR 104 WK (STUDY DURATION: LIFETIME), Tumor Site: Type of Lesion: ZYMBAL GLAND: CARCINOMA, ORAL CAVITY: CARCINOMA, NASAL CAVITY: CARCINOMA, Tumor Site: Type of Lesion: ZYMBAL GLAND: CARCINOMA, ORAL CAVITY: CARCINOMA, NASAL CAVITY: CARCINOMA): active; positive | carcinogen call (Species: RAT, Strain/Sex: WISTAR/FEMALE, Route: INTRAGASTRIC, 500 MG/KG BW IN OLIVE OIL 1/D 4-5 D/WK FOR 104 WK (STUDY DURATION: LIFESPAN), Tumor Site: Type of Lesion: ZYMBAL GLAND: CARCINOMA, MAMMARY GLAND: ADENOCARCINOMA, HEMOLYMPHORETICULAR SYSTEM: TUMOR, Tumor Site: Type of Lesion: ZYMBAL GLAND: CARCINOMA, MAMMARY GLAND: ADENOCARCINOMA, HEMOLYMPHORETICULAR SYSTEM: TUMOR): active; positive | carcinogen call (Species: RAT, Strain/Sex: WISTAR/MALE, Route: GAVAGE, 500 MG/KG IN OLIVE OIL 1/D FOR 4 TO 5 D/WK FOR 104 WK (STUDY DURATION: LIFETIME), Tumor Site: Type of Lesion: ZYMBAL GLAND: CARCINOMA, ORAL CAVITY: CARCINOMA, NASAL CAVITY: CARCINOMA, Tumor Site: Type of Lesion: ZYMBAL GLAND: CARCINOMA, ORAL CAVITY: CARCINOMA, NASAL CAVITY: CARCINOMA): active; positive | carcinogen call (Species: RAT, Strain/Sex: WISTAR/MALE, Route: INTRAGASTRIC, 500 MG/KG BW IN OLIVE OIL 1/D 4-5 D/WK FOR 104 WK (STUDY DURATION: LIFESPAN), Tumor Site: Type of Lesion: ZYMBAL GLAND: CARCINOMA): active; positive
